Laboratory results taken from patent publication US7101886B2, “Phenylalkyl and pyridylalkyl piperazine derivatives” (Warner Lambert Company, priority 2002, dated 2006).

System: not given
Experiment: not given
Details: not given

Row | SMILES | melting point [°C]
1 | O=C(Cc1cccs1)Nc1ccc(OCCN2CCN(c3nsc4ccccc34)CC2)cc1 | 142
2 | CC(=O)OC(C)C(=O)Nc1ccc(OCCN2CCN(c3nsc4ccccc34)CC2)cc1 (centres unmarked) | 90
3 | Cc1nn(C)c(Cl)c1S(=O)(=O)Nc1ccc(OCCN2CCN(c3nsc4ccccc34)CC2)cc1 | 85
4 | Cc1nc(S(=O)(=O)Nc2ccc(OCCN3CCN(c4nsc5ccccc45)CC3)cc2)cn1C | 227
5 | CC(=O)Nc1ccc(S(=O)(=O)Nc2ccc(OCCN3CCN(c4nsc5ccccc45)CC3)cc2)cc1 | 120
6 | COc1cc(CCN2CCN(c3nsc4ccccc34)CC2)c(NC(C)=O)cc1OC | 120
7 | COc1cc(CCN2CCN(c3nsc4ccccc34)CC2)c(NC(=O)Cc2cccs2)cc1OC | 135
8 | COc1cc(CCN2CCN(c3nsc4ccccc34)CC2)c(NC(=O)Cc2ccc(Cl)cc2)cc1OC | 152
9 | COc1cc(CCN2CCN(c3nsc4ccccc34)CC2)c(NC(=O)Cc2ccccc2)cc1OC | 142
10 | COc1cc(CCN2CCN(c3nsc4ccccc34)CC2)c(NS(=O)(=O)c2cn(C)c(C)n2)cc1OC | 233
11 | COc1cc(CCN2CCN(c3nsc4ccccc34)CC2)c(NS(=O)(=O)c2c(C)nn(C)c2C)cc1OC | 196
12 | COc1cc(CCN2CCN(c3nsc4ccccc34)CC2)c(NC(=O)Nc2c(C)cccc2C)cc1OC | 96
13 | Cn1cnc(S(=O)(=O)Nc2ccc(OCCN3CCN(c4nsc5ccccc45)CC3)cc2)c1 [Example 44, 1-METHYL-1H-IMIDAZOLE-4-SULFONIC ACID {4-[2-(4-1,2-BENZISOTHIAZOL-3-YL-PIPERAZIN-1-YL)-ETHOXY]-PHENYL}-AMIDE] | 176
14 | COc1ccc(OC)c(S(=O)(=O)Nc2ccc(OCCN3CCN(c4nsc5ccccc45)CC3)cc2)c1 [Example 46, N-{4-[2-(4-1,2-BENZISOTHIAZOL-3-YL-PIPERAZIN-1-YL)-ETHOXY]-PHENYL}-2,5-DIMETHOXY-BENZENESULFONAMIDE] | 78
15 | O=S(=O)(Nc1ccc(OCCN2CCN(c3nsc4ccccc34)CC2)cc1)c1ccccc1 [Example 47, N-{4-[2-(4-1,2-BENZISOTHIAZOL-3-YL-PIPERAZIN-1-YL)-ETHOXY]-PHENYL}-BENZENESULFONAMIDE] | 65
16 | CC(C)=CC(=O)Nc1ccccc1CCN1CCN(c2nsc3ccccc23)CC1 [Example 50, 3-METHYL-BUT-2-ENOIC ACID {2-[2-(4-1,2-BENZISOTHIAZOL-3-YL-PIPERAZIN-1-YL)-ETHYL]-PHENYL}-AMIDE] | 52
17 | COc1cc(CCN2CCN(c3nsc4ccccc34)CC2)c(NS(=O)(=O)c2ccccc2F)cc1OC [Example 56, N-{2-[2-(4-1,2-BENZISOTHIAZOL-3-YL-PIPERAZIN-1-YL)-ETHYL]-4,5-DIMETHOXY-PHENYL}-2-FLUORO-BENZENESULFONAMIDE] | 167
18 | COc1cc(CCN2CCN(c3nsc4ccccc34)CC2)c(NS(=O)(=O)c2ccccc2C)cc1OC [Example 58, N-{2-[2-(4-1,2-BENZISOTHIAZOL-3-YL-PIPERAZIN-1-YL)-ETHYL]-4,5-DIMETHOXY-PHENYL}-2-METHYL-BENZENESULFONAMIDE] | 187
19 | COc1cc(CCN2CCN(c3nsc4ccccc34)CC2)c(NC(=O)Nc2ccc(F)cc2)cc1OC [Example 62, 1-{2-[2-(4-1,2-BENZISOTHIAZOL-3-YL-PIPERAZIN-1-YL)-ETHYL]-4,5-DIMETHOXY-PHENYL}-3-(4-FLUORO-PHENYL)-UREA] | 211
20 | COc1cc(CCN2CCN(c3nsc4ccccc34)CC2)c(NC(=O)NC2CCCCC2)cc1OC [Example 63, 1-{2-[2-(4-1,2-BENZISOTHIAZOL-3-YL-PIPERAZIN-1-YL)-ETHYL]-4,5-DIMETHOXY-PHENYL}-3-CYCLOHEXYL-UREA] | 156
21 | CC(C)=CC(=O)Nc1ccc(F)cc1CCN1CCN(c2nsc3ccccc23)CC1 [Example 64, 3-METHYL-BUT-2-ENOIC ACID {2-[2-(4-1,2-BENZISOTHIAZOL-3-YL-PIPERAZIN-1-YL)-ETHYL]-4-FLUORO-PHENYL}-AMIDE] | 175
22 | COc1cc(CCN2CCN(c3nsc4ccccc34)CC2)c(NC(=O)C=C(C)C)cc1OC [Example 65, 3-M ETHYL-BUT-2-ENOIC ACID {2-[2-(4-1,2-BENZISOTHIAZOL-3-YL-PIPERAZIN-1-YL)-ETHYL]-4,5-DIMETHOXY-PHENYL}-AMIDE] | 58
23 | O=C1c2ccccc2CN1c1ccc(CCN2CCN(c3nsc4ccccc34)CC2)cc1 [Example 527, 2-{4-[2-(4-BENZO[D]ISOTHIAZOL-3-YL-PIPERAZIN-1-YL)-ETHYL]-PHENYL}-2,3-DIHYDRO-ISOINDOL-1-ONE] | 175.9
24 | O=C1c2ccccc2CN1c1cccc(CCN2CCN(c3nsc4ccccc34)CC2)c1 [Example 528, 2-{3-[2-(4-BENZO[D]ISOTHIAZOL-3-YL-PIPERAZIN-1-YL)-ETHYL]-PHENYL}-2,3-DIHYDRO-ISOINDOL-1-ONE] | 154.5 to 155.3
25 | O=C1c2ccccc2CN1c1ccccc1CCN1CCN(c2nsc3ccccc23)CC1 [Example 529, 2-{2-[2-(4-BENZO[D]ISOTHIAZOL-3-YL-PIPERAZIN-1-YL)-ETHYL]-PHENYL}-2,3-DIHYDRO-ISOINDOL-1-ONE] | 207.6 to 208
26 | O=C1c2ccccc2CN1c1ccc(OCCN2CCN(c3nsc4ccccc34)CC2)cc1 [Example 530, 2-{4-[2-(4-BENZO[D]ISOTHIAZOL-3-YL-PIPERAZIN-1-YL)-ETHOXY]-PHENYL}-2,3-DIHYDRO-ISOINDOL-1-ONE] | 166.4 to 166.6

Target: T1, dopamine D2 receptor (Homo sapiens, UniProt P14416)
T1 construct: expressed in transfected cells; host or cells: CHO cells (CHO-hD2L), membrane preparation
T1 sequence (P14416 whole entry): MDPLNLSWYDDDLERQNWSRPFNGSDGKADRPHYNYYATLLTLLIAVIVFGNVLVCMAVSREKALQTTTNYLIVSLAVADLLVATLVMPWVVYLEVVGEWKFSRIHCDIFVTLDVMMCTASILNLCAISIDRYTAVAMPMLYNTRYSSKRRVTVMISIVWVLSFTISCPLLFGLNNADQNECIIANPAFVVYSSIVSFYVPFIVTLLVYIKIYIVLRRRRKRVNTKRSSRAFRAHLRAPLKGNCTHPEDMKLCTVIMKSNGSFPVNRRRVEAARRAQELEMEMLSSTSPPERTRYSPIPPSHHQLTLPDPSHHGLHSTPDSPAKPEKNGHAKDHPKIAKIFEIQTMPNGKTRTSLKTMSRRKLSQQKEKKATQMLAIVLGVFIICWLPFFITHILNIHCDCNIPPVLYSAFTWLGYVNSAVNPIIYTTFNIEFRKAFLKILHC
Experiment: Dopamine D2 receptor binding ([3H]spiperone radioligand binding)
Details: [3H]spiperone binding, membrane preparation from CHO-hD2L cells
Source text: (§1) The ability of the compounds of this invention to bind to the dopamine D2 and serotonin 2A (5HT2A) receptors can be determined using conventional radioligand receptor binding assays. All receptors can be heterologously expressed in cell lines and experiments conducted in membrane preparations from the cell lines using procedures outlined below. IC50 concentrations can be determined by nonlinear regression of concentration-dependent reduction in specific binding. The Cheng-Prussoff equation can be used to convert the IC50 to Ki concentrations.
Dopamine D2 Receptor Binding:
[^3H]Spiperone binding to a membrane preparation from CHO-hD2L cells is carried out in 250 μl of 50 mM Tris-HCl buffer containing 100 mM NaCl, 1 mM MgCl2 and 1% DMSO at pH 7.4. Duplicate samples containing (in order of addition) the test compounds, 0.4 nM [^3H]spiperone and approximately 12 μg protein are incubated for 120 minutes at room temperature. Bound radioligand is separated by rapid filtration under reduced pressure through Whatman GF/B glass fiber filters previously treated with 0.3% polyethyleneimine. Radioactivity retained on the filter is determined by liquid scintillation spectrophotometry.
The title compounds of Examples 1–524 were tested using the above assay, in which specific binding determined in the presence of 1 mM haloperidol was 95%.

Row | SMILES | Ki [nM]
27 | Cc1cc(C(=O)Nc2ccc(CCN3CCN(c4nsc5ccccc45)CC3)cc2)c(C)o1 [Example 27, 2,5-DIMETHYL-FURAN-3-CARBOXYLIC ACID {4-[2-(4-1,2-BENZISOTHIAZOL-3-YL-PIPERAZIN-1-YL)-ETHYL]-PHENYL}-AMIDE] | 6.32
28 | Cc1cc(C(=O)Nc2ccc(CCN3CCN(c4nsc5ccccc45)CC3)cc2)n(C)n1 [Example 102, 2,5-DIMETHYL-2H-PYRAZOLE-3-CARBOXYLIC ACID {4-[2-(4-1,2-BENZISOTHIAZOL-3-YL-PIPERAZIN-1-YL)-ETHYL]-PHENYL}-AMIDE] | 8.2
29 | COc1cccc(S(=O)(=O)Nc2ccc(CCN3CCN(c4nsc5ccccc45)CC3)cc2)c1 [Example 364, N-{4-[2-(4-1,2-BENZISOTHIAZOL-3-YL-PIPERAZIN-1-YL)-ETHYL]-PHENYL}-3-METHOXY-BENZENESULFONAMIDE] | 8.58

Target: T2, serotonin 2A (5HT2A) receptor (Homo sapiens, UniProt P28223)
T2 construct: expressed in transfected cells; host or cells: Swiss cells (Swiss-h5HT2A)
T2 sequence (P28223 whole entry): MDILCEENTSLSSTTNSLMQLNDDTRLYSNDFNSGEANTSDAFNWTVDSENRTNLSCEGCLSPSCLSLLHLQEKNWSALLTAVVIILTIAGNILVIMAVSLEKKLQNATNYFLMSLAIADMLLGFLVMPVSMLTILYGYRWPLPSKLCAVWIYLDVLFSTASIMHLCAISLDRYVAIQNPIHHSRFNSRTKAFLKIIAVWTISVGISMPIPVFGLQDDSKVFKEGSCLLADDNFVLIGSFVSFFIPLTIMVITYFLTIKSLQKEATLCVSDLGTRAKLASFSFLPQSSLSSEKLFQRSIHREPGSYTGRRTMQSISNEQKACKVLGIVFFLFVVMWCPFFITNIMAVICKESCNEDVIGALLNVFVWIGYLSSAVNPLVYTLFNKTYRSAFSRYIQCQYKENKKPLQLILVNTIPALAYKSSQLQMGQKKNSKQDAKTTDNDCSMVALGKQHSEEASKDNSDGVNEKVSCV
Experiment: Serotonin 2A binding ([3H]ketanserin radioligand binding)
Details: [3H]ketanserin binding, Swiss-h5HT2A cell membranes
Source text: as §1
[^3H] Ketanserin binding to Swiss-h5HT2A cell membranes can be carried out in 250 μl of 50 mM Tris-HCl buffer pH 7.4. Duplicate samples containing (in order of addition) test compounds, 1.0 nM [^3H]ketanserin, and approximately 75 μg protein are incubated for 120 minutes at room temperature. Bound radioligand is separated by rapid filtration under reduced pressure through Whatman GF/B glass fiber filters previously treated with 0.3% polyethyleneimine. Radioactivity retained on the filter is determined by liquid scintillation spectrophotometry.
The title compounds of Examples 1–524 were tested using the above assay, in which specific binding determined in the presence of 1 mM ketanserin was 90%.

Row | SMILES | Ki [nM]
30 | Cc1cc(C(=O)Nc2ccc(CCN3CCN(c4nsc5ccccc45)CC3)cc2)c(C)o1 [Example 27, 2,5-DIMETHYL-FURAN-3-CARBOXYLIC ACID {4-[2-(4-1,2-BENZISOTHIAZOL-3-YL-PIPERAZIN-1-YL)-ETHYL]-PHENYL}-AMIDE] | 1.46
31 | Cc1cc(C(=O)Nc2ccc(CCN3CCN(c4nsc5ccccc45)CC3)cc2)n(C)n1 [Example 102, 2,5-DIMETHYL-2H-PYRAZOLE-3-CARBOXYLIC ACID {4-[2-(4-1,2-BENZISOTHIAZOL-3-YL-PIPERAZIN-1-YL)-ETHYL]-PHENYL}-AMIDE] | 0.25
32 | COc1cccc(S(=O)(=O)Nc2ccc(CCN3CCN(c4nsc5ccccc45)CC3)cc2)c1 [Example 364, N-{4-[2-(4-1,2-BENZISOTHIAZOL-3-YL-PIPERAZIN-1-YL)-ETHYL]-PHENYL}-3-METHOXY-BENZENESULFONAMIDE] | 0.29
